Measured values: patent US11440923B2, “Substituted macrocyclic indole derivatives” (Bayer Aktiengesellschaft, priority 2017, dated 2022)
Structures can show the parent of a compound that is named as a salt. Where two headings read alike, the source gives them in different places.

Legend:
[1] = target: BCL-XL (Homo sapiens (Human), UniProt Q07817); experiment: Protein-protein interaction assay BCL-XL/Bad BH3 peptide (BCL-XL assay, TR-FRET); format: binding; details: read-out: BCL-XL Assay IC50 (median)
Chain of BCL-XL (Q07817 1-212): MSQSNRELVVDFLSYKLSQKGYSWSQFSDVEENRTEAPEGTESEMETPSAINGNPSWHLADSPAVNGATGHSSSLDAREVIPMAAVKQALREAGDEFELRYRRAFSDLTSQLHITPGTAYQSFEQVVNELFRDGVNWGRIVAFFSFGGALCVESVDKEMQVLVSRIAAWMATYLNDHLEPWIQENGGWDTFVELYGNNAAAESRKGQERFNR
Summary of the method: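 Human BCL-XL (aa 1-212, C-terminal His6, E. coli) at 1 nM end concentration, preincubated 10 min at 22 °C with compound (11 concentrations, 0.1 nM–20 μM, duplicates), then biotinylated Bad BH3 peptide (1 nM) added with anti-His-Eu cryptate/streptavidin-XL665. Incubation 1 h at 22 °C then overnight at 4 °C; TR-FRET 665/620 ratio, IC50 from 4-parameter fit.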

[2] = test system: SUDHL10 cells; experiment: Induction of cytotoxicity in SUDHL10 cells (Assay 6); format: cell-based; details: 5 h, CellTiter-Glo, read-out: Cytotox SUDHL10 IC50 (median)
Summary of the method: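 Cells plated overnight at 37 °C, then exposed to compound for 5 h in a humidified incubator at 37 °C. Viability read by CellTiter-Glo luminescence after 15 min shaking at room temperature; cell-free medium served as control.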

[3] = test system: HMC-1-8 cells; experiment: Antiproliferation assay HMC-1-8 (Assay 7); format: cell-based; details: 72 h
Summary of the method: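 Cells are plated alongside a time-zero reference plate and held overnight at 37 °C. Treated plates are incubated 72 h, then ATP-based luminescence (CellTiter-Glo) is read. IC50 uses day 0 as baseline and DMSO as untreated control.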

[4] = read-out: Antiproli HMC-1-8 IC50 median, CellTiter-Glo

| SMILES | IC50 [1] [µM] | IC50 [2] [µM] | IC50 [3, 4] [µM] | IC50 ([3]; read-out: Antiproli HMC-1-8 IC50 median, 72 h, CellTiter-Glo) [µM] | IC50 ([2]; Homo sapiens, SU-DHL10, 5 h) [µM] | IC50 ([3]; CellTiter-Glo, read-out: Antiproli HMC-1-8 IC50 median) [µM] |
| --- | --- | --- | --- | --- | --- | --- |
| Cc1c2c(nn1C)C(C1CC1)OCCCCn1c(C(=O)O)c(CCCOc3cccc4ccccc34)c3ccc(Cl)c-2c31 (single isomer, unassigned; enantiomer 2) [Example 36, (−)-4-chloro-15-cyclopropyl-2,3-dimethyl-7-{3-[(naphthalen-1-yl)oxy]propyl}-2,10,11,12,13,15-hexahydropyrazolo[4′,3′:9,10][1,6]oxazacycloundecino[8,7,6-hi]indole-8-carboxylic Acid N-ethylethanamine Salt (Enantiomer 2)] | 13.8 | 27 | 19 |  |  |  |
| CCC1OCCCCn2c(C(=O)O)c(CCCOc3cccc4ccccc34)c3ccc(Cl)c(c32)-c2c1nn(C)c2C (single isomer, unassigned; enantiomer 1) [Example 29, (+)-4-chloro-15-ethyl-2,3-dimethyl-7-{3-[(naphthalen-1-yl)oxy]propyl}-2,10,11,12,13,15-hexahydropyrazolo[4′,3′:9,10][1,6]oxazacycloundecino[8,7,6-hi]indole-8-carboxylic Acid—N-ethylethanamine Salt (Enantiomer 1)] | 14.2 | 3.9 |  | 23.2 |  |  |
| CCc1c2c(nn1C)C(CCN1CCOCC1)OCCCCn1c(C(=O)O)c(CCCOc3cccc4ccccc34)c3ccc(F)c-2c31 (racemic) [Example 10, (rac)-3-ethyl-4-fluoro-2-methyl-15-[2-(morpholin-4-yl)ethyl]-7-[3-(naphthalen-1-yloxy)propyl]-2,10,11,12,13,15-hexahydropyrazolo[4′,3′:9,10][1,6]oxazacycloundecino[8,7,6-hi]indole-8-carboxylic Acid] | > 20 |  |  |  | 0.3 | 1.49 |
| CCc1c2c(nn1C)C(CCOC)OCCCCn1c(C(=O)O)c(CCCOc3cccc4cc(F)ccc34)c3ccc(Cl)c-2c31 (single isomer, unassigned; enantiomer 2) [Example 43, (−)-4-chloro-3-ethyl-7-{3-[(6-fluoronaphthalen-1-yl)oxy]propyl}-15-(2-methoxyethyl)-2-methyl-2,10,11,12,13,15-hexahydropyrazolo[4′,3′:9,10][1,6]oxazacycloundecino[8,7,6-hi]indole-8-carboxylic Acid—N-ethylethanamine Salt (Enantiomer 2)] | 17.2 | 19 | 26.5 |  |  |  |
